In PMC10791936, “Engineering allosteric inhibition of homoserine dehydrogenase by semi-rational saturation mutagenesis screening” (Frontiers in Bioengineering and Biotechnology, 2024):
Numbering of substitutions follows the chain as printed. Names may count otherwise.

Assays:
[1] = molecular target: T1, CgHSD (Corynebacterium glutamicum, UniProt P08499, A384D); experiment: enzyme activity inhibition, NADPH formation; type: biochemical; details: allosteric; 50 mM L-isoleucine; stated gain
T1 construct: gene hom; full-length hom in pET-28a, N-terminal His6 tag, expressed in E. coli Transetta (DE3), Ni purified; homotetramer by SEC

[2] = molecular target: T2, CgHSD (Corynebacterium glutamicum, UniProt P08499); experiment: enzyme activity inhibition, NADPH formation; type: biochemical; details: feedback inhibitor, allosteric; 5 mM L-isoleucine
T2 construct: gene hom; full-length hom in pET-28a, N-terminal His6 tag, expressed in E. coli Transetta (DE3), Ni purified; homotetramer by SEC

[3] = molecular target: T3, CgHSD (Corynebacterium glutamicum, UniProt P08499, G378E); experiment: enzyme activity inhibition, NADPH formation; type: biochemical; details: allosteric; 50 mM L-isoleucine; stated gain
T3 construct: gene hom; full-length hom in pET-28a, N-terminal His6 tag, expressed in E. coli Transetta (DE3), Ni purified; homotetramer by SEC

[4] = molecular target: T4, CgHSD (Corynebacterium glutamicum, UniProt P08499, I397V); experiment: enzyme activity inhibition, NADPH formation; type: biochemical; details: allosteric; 50 mM L-isoleucine; stated gain
T4 construct: gene hom; full-length hom in pET-28a, N-terminal His6 tag, expressed in E. coli Transetta (DE3), Ni purified; homotetramer by SEC

[5] = molecular target: T4, CgHSD; experiment: enzyme activity inhibition, NADPH formation; type: biochemical; details: allosteric; 10 mM L-threonine; stated gain
[6] = molecular target: T3, CgHSD; experiment: enzyme activity inhibition, NADPH formation; type: biochemical; details: allosteric; 50 mM L-threonine; stated gain
[7] = molecular target: T1, CgHSD; experiment: enzyme activity inhibition, NADPH formation; type: biochemical; details: allosteric; 10 mM L-threonine; stated gain
[8] = molecular target: T2, CgHSD; experiment: enzyme activity inhibition, NADPH formation; type: biochemical; details: feedback inhibitor, allosteric; 1 mM L-threonine
[9] = molecular target: the molecule itself; experiment: SEC; apparent molecular mass from a standard curve; peaks at 11.8 mL of elution volume; column and buffer not shown (Supplementary Figure S2)

T3 sequence (P08499 whole entry G378E): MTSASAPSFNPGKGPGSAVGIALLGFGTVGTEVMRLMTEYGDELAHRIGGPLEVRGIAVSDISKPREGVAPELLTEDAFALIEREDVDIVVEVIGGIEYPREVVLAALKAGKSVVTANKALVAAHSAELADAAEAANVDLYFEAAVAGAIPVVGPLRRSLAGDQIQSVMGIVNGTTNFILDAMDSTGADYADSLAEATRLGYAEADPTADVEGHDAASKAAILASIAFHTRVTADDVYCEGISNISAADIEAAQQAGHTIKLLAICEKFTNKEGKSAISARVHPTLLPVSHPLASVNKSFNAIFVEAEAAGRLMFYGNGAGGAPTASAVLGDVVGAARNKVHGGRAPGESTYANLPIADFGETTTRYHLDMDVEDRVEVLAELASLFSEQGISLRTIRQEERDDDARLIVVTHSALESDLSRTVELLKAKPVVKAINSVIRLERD
T4 sequence (P08499 whole entry I397V): as the sequence (P08499 whole entry G378E) above, with E378G, I397V counted along it
T1 sequence (P08499 whole entry A384D): as the sequence (P08499 whole entry G378E) above, with E378G, A384D counted along it

CC[C@H](C)[C@H](N)C(=O)O [L-isoleucine]
% activity maintained at 50 mM [1]: 76.5%
% activity loss at 5 mM [2]: > 75%
% activity maintained at 50 mM [3]: 61.0%
% activity maintained at 50 mM [4]: 50.1%

C[C@@H](O)[C@H](N)C(=O)O [L-threonine]
% activity kept at 10 mM [5]: > 90%
% retained activity at 50 mM [6]: 52.7%
% activity kept at 10 mM [7]: > 90%
% activity loss at 1 mM [8]: > 80%

B1: Homoserine dehydrogenase from Corynebacterium glutamicum (CgHSD), wild type (enzyme, Corynebacterium glutamicum ATCC 13032, UniProt P08499 1-445, looked up)
chain: MTSASAPSFNPGKGPGSAVGIALLGFGTVGTEVMRLMTEYGDELAHRIGGPLEVRGIAVSDISKPREGVAPELLTEDAFALIEREDVDIVVEVIGGIEYPREVVLAALKAGKSVVTANKALVAAHSAELADAAEAANVDLYFEAAVAGAIPVVGPLRRSLAGDQIQSVMGIVNGTTNFILDAMDSTGADYADSLAEATRLGYAEADPTADVEGHDAASKAAILASIAFHTRVTADDVYCEGISNISAADIEAAQQAGHTIKLLAICEKFTNKEGKSAISARVHPTLLPVSHPLASVNKSFNAIFVEAEAAGRLMFYGNGAGGAPTASAVLGDVVGAARNKVHGGRAPGESTYANLPIADFGETTTRYHLDMDVEDRVGVLAELASLFSEQGISLRTIRQEERDDDARLIVVTHSALESDLSRTVELLKAKPVVKAINSVIRLERD
notes: Homoserine dehydrogenase (hom gene) of Corynebacterium glutamicum ATCC 13032, amplified from genomic DNA into pET-28a (pET-hom); printed mass of the monomer 46.4 kDa; also called wild-type CgHSD
stoichiometry N [9]: 4

B2: Homoserine dehydrogenase from Corynebacterium glutamicum (CgHSD), A384D mutant (enzyme, Corynebacterium glutamicum ATCC 13032, UniProt P08499 1-445, looked up)
chain: B1 chain with A384D
stoichiometry N [9]: 4

B3: Homoserine dehydrogenase from Corynebacterium glutamicum (CgHSD), I397V mutant (enzyme, Corynebacterium glutamicum ATCC 13032, UniProt P08499 1-445, looked up)
chain: B1 chain with I397V
stoichiometry N [9]: 4
